Test results reported in ChEMBL document CHEMBL3885861, “Open TG-GATES”.

Species on record: Rattus norvegicus
Assay: Open TG-GATES - Regimen: Daily Repeat
Assay type: toxicity, organism-based, Sprague-Dawley
Design: regimen Daily Repeat, gender Male, age 6 weeks
Details: in vivo, po, 3 mg/kg, route gavage, dose level Low; for APTT / Bas / Eos / Fbg / Hb / Ht / Lym / MCH / MCHC / MCV / Mono / Neu / PT / Plat / RBC / Ret / WBC: tissue Blood; for KIDNEY_L / KIDNEY_R / KIDNEY_TOTAL: tissue Kidney; for LIVER: tissue Liver; for A/G / ALP / ALT / AST / BUN / CRE / Ca / Cl / DBIL / GLC / IP / K / LDH / Na / PL / RALB / TBIL / TC / TG / TP / gamma-GTP: tissue Plasma

CN(C)CCC(c1ccc(Cl)cc1)c1ccccn1 (configuration not stated) [CHLORPHENIRAMINE]
TERMINAL_BW (72 h, time 3 day): 233.5 g
APTT (72 h, time 3 day): 18.3 s
Bas (72 h, time 3 day): 0.2%
Eos (72 h, time 3 day): 1%
Fbg (72 h, time 3 day): 299.4 mg/dL
Hb (72 h, time 3 day): 13.3 g/dL
Ht (72 h, time 3 day): 41.5%
Lym (72 h, time 3 day): 80.4%
MCH (72 h, time 3 day): 21 pg
MCHC (72 h, time 3 day): 32.1%
MCV (72 h, time 3 day): 65.5 fL
Mono (72 h, time 3 day): 2.8%
Neu (72 h, time 3 day): 15.2%
PT (72 h, time 3 day): 14.5 s
Plat (72 h, time 3 day): 124 x10_4/uL
RBC (72 h, time 3 day): 634 x10_4/ul
Ret (72 h, time 3 day): 7.1%
WBC (72 h, time 3 day): 89 x10_2/uL
KIDNEY_L (72 h, time 3 day): 1 g
KIDNEY_R (72 h, time 3 day): 0.9 g
KIDNEY_TOTAL (72 h, time 3 day): 1.9 g
LIVER (72 h, time 3 day): 11.3 g
A/G (72 h, time 3 day): 0.8
ALP (72 h, time 3 day): 1834.4 IU/L
ALT (72 h, time 3 day): 44.4 IU/L
AST (72 h, time 3 day): 66.4 IU/L
BUN (72 h, time 3 day): 16.2 mg/dL
CRE (72 h, time 3 day): 0.2 mg/dL
Ca (72 h, time 3 day): 10.6 mg/dL
Cl (72 h, time 3 day): 106.2 meq/L
DBIL (72 h, time 3 day): 0.018 mg/dL
GLC (72 h, time 3 day): 183.6 mg/dL
IP (72 h, time 3 day): 8.3 mg/dL
K (72 h, time 3 day): 4.3 meq/L
LDH (72 h, time 3 day): 94.6 IU/L
Na (72 h, time 3 day): 142 meq/L
PL (72 h, time 3 day): 162.6 mg/dL
RALB (72 h, time 3 day): 2.7 g/dL
TBIL (72 h, time 3 day): 0.04 mg/dL
TC (72 h, time 3 day): 86.6 mg/dL
TG (72 h, time 3 day): 109.8 mg/dL
TP (72 h, time 3 day): 5.8 g/dL
gamma-GTP (72 h, time 3 day): 1 IU/L
TERMINAL_BW ([…], time 7 day): 265.1 g
TERMINAL_BW ([…], time 14 day): 330.4 g
TERMINAL_BW ([…], time 28 day): 400.2 g
APTT ([…], time 7 day): 19.8 s
Bas ([…], time 7 day): 0%
Eos ([…], time 7 day): 1%
Fbg ([…], time 7 day): 289.8 mg/dL
Hb ([…], time 7 day): 13.7 g/dL
Ht ([…], time 7 day): 41.7%
Lym ([…], time 7 day): 77.2%
MCH ([…], time 7 day): 20.6 pg
MCHC ([…], time 7 day): 32.8%
MCV ([…], time 7 day): 62.8 fL
Mono ([…], time 7 day): 2.6%
Neu ([…], time 7 day): 18.4%
PT ([…], time 7 day): 14 s
Plat ([…], time 7 day): 116 x10_4/uL
RBC ([…], time 7 day): 665 x10_4/ul
Ret ([…], time 7 day): 6%
WBC ([…], time 7 day): 80.2 x10_2/uL
APTT ([…], time 14 day): 18.1 s
Bas ([…], time 14 day): 0.2%
Eos ([…], time 14 day): 1%
Fbg ([…], time 14 day): 299 mg/dL
Hb ([…], time 14 day): 14.4 g/dL
Ht ([…], time 14 day): 43.5%
Lym ([…], time 14 day): 80.2%
MCH ([…], time 14 day): 20.5 pg
MCHC ([…], time 14 day): 33.1%
MCV ([…], time 14 day): 61.9 fL
Mono ([…], time 14 day): 2.8%
Neu ([…], time 14 day): 15%
PT ([…], time 14 day): 14.4 s
Plat ([…], time 14 day): 119.7 x10_4/uL
RBC ([…], time 14 day): 703.8 x10_4/ul
Ret ([…], time 14 day): 4.6%
WBC ([…], time 14 day): 85 x10_2/uL
APTT ([…], time 28 day): 17.7 s
Bas ([…], time 28 day): 0.4%
Eos ([…], time 28 day): 1%
Fbg ([…], time 28 day): 281.2 mg/dL
Hb ([…], time 28 day): 15.6 g/dL
Ht ([…], time 28 day): 46.5%
Lym ([…], time 28 day): 77.4%
MCH ([…], time 28 day): 19 pg
MCHC ([…], time 28 day): 33.5%
MCV ([…], time 28 day): 56.8 fL
Mono ([…], time 28 day): 2.4%
Neu ([…], time 28 day): 18%
PT ([…], time 28 day): 14.5 s
Plat ([…], time 28 day): 107.8 x10_4/uL
RBC ([…], time 28 day): 819.6 x10_4/ul
Ret ([…], time 28 day): 2.4%
WBC ([…], time 28 day): 82.8 x10_2/uL
KIDNEY_L ([…], time 7 day): 1.1 g
KIDNEY_R ([…], time 7 day): 1.1 g
KIDNEY_TOTAL ([…], time 7 day): 2.2 g
KIDNEY_L ([…], time 14 day): 1.2 g
KIDNEY_R ([…], time 14 day): 1.2 g
KIDNEY_TOTAL ([…], time 14 day): 2.5 g
KIDNEY_L ([…], time 28 day): 1.4 g
KIDNEY_R ([…], time 28 day): 1.4 g
KIDNEY_TOTAL ([…], time 28 day): 2.8 g
LIVER ([…], time 7 day): 12.6 g
LIVER ([…], time 14 day): 14.8 g
LIVER ([…], time 28 day): 15.6 g
A/G ([…], time 7 day): 0.8
ALP ([…], time 7 day): 1694.2 IU/L
ALT ([…], time 7 day): 41.6 IU/L
AST ([…], time 7 day): 68 IU/L
BUN ([…], time 7 day): 15.6 mg/dL
CRE ([…], time 7 day): 0.2 mg/dL
Ca ([…], time 7 day): 11.4 mg/dL
Cl ([…], time 7 day): 106.2 meq/L
DBIL ([…], time 7 day): 0.014 mg/dL
GLC ([…], time 7 day): 194 mg/dL
IP ([…], time 7 day): 7.7 mg/dL
K ([…], time 7 day): 4.2 meq/L
LDH ([…], time 7 day): 93 IU/L
Na ([…], time 7 day): 144 meq/L
PL ([…], time 7 day): 159.8 mg/dL
RALB ([…], time 7 day): 2.7 g/dL
TBIL ([…], time 7 day): 0.032 mg/dL
TC ([…], time 7 day): 77.8 mg/dL
TG ([…], time 7 day): 135 mg/dL
TP ([…], time 7 day): 6 g/dL
gamma-GTP ([…], time 7 day): 1 IU/L
A/G ([…], time 14 day): 0.8
ALP ([…], time 14 day): 1670 IU/L
ALT ([…], time 14 day): 39.2 IU/L
AST ([…], time 14 day): 64.2 IU/L
BUN ([…], time 14 day): 16.4 mg/dL
CRE ([…], time 14 day): 0.2 mg/dL
Ca ([…], time 14 day): 11.1 mg/dL
Cl ([…], time 14 day): 105.2 meq/L
DBIL ([…], time 14 day): 0.02 mg/dL
GLC ([…], time 14 day): 194 mg/dL
IP ([…], time 14 day): 7.7 mg/dL
K ([…], time 14 day): 4.1 meq/L
LDH ([…], time 14 day): 103.6 IU/L
Na ([…], time 14 day): 143.4 meq/L
PL ([…], time 14 day): 160.8 mg/dL
RALB ([…], time 14 day): 2.8 g/dL
TBIL ([…], time 14 day): 0.034 mg/dL
TC ([…], time 14 day): 77 mg/dL
TG ([…], time 14 day): 153 mg/dL
TP ([…], time 14 day): 6.1 g/dL
gamma-GTP ([…], time 14 day): 1 IU/L
A/G ([…], time 28 day): 0.8
ALP ([…], time 28 day): 1190.6 IU/L
ALT ([…], time 28 day): 38.6 IU/L
AST ([…], time 28 day): 63.8 IU/L
BUN ([…], time 28 day): 17 mg/dL
CRE ([…], time 28 day): 0.2 mg/dL
Ca ([…], time 28 day): 10.6 mg/dL
Cl ([…], time 28 day): 107.6 meq/L
DBIL ([…], time 28 day): 0.014 mg/dL
GLC ([…], time 28 day): 186.2 mg/dL
IP ([…], time 28 day): 6.2 mg/dL
K ([…], time 28 day): 4 meq/L
LDH ([…], time 28 day): 70.4 IU/L
Na ([…], time 28 day): 145 meq/L
PL ([…], time 28 day): 156.2 mg/dL
RALB ([…], time 28 day): 2.8 g/dL
TBIL ([…], time 28 day): 0.028 mg/dL
TC ([…], time 28 day): 75.2 mg/dL
TG ([…], time 28 day): 148 mg/dL
TP ([…], time 28 day): 6.4 g/dL
gamma-GTP ([…], time 28 day): 0.8 IU/L
